Laboratory results as given in patent US12264173B2 (GILEAD SCIENCES, INC., priority 2020, dated 2025).
Where two headings read alike, the source gives them in different places.

Legend:
Assay type in all cases: cell-based
[1] = system: HRV16; assay: HRV16 HeLa EC50 (cytopathic effect in H1-HeLa cells)
Procedure, shortened: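 Read-out is luminescent cell viability (CellTiter-Glo) after 96 h of infection at 33 °C, scaled between uninfected and infected-untreated wells. Before infection with titrated virus, compounds went onto H1-HeLa cells as triplicate 3-fold dilution series.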

[2] = system: RSV A2; assay: RSV NHBE EC50 (RSV A2 antiviral assay in NHBE cells); conditions: Table 3, NHBE cells, RSV A2, 4 days, read-out: RSV NHBE EC50
Procedure, shortened: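 Step 1: seed NHBE cells (7,500/well, BEGM) overnight. Step 2: add 3-fold diluted compound, DMSO 0.05%. Step 3: infect with RSV A2, 1×10^4.5 TCID/mL; incubate 4 days, 37° C. Step 4: CellTiter-Glo luminescence.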

[3] = system: RSV strain A2; assay: microbe, parasite or virus in culture; conditions: Table 3, HEp-2 cells, RSV A2, 4 days, read-out: RSV HEp-2 EC50
Procedure, shortened: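 Cytopathic-effect protection assay: HEp-2 cells (50,000/mL) infected with pre-titered RSV A2 onto 3-fold serial compound dilutions, incubated 4 days at 37° C. Cell viability read by CellTiter-Glo luminescence; percent inhibition derived against 0% and 100% virus-inhibition controls.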

[4] = system: DENV2 replicon; assay: DENV-2 Huh-7 Rep EC50 (replicon luminescence); conditions: read-out: DENV-2 REP Huh7 EC50
Method: In 384 well plates (Greiner, Cat #781091), compounds were acoustically transferred at 200 nl per well in a 8 compound (4 replicates) or 40 compound dose response format (3 replicates). For all plates tested, Balapiravir, GS-5734 and NITD008 were included as positive inhibition controls alongside 0% inhibition, DMSO-only negative control wells. Following compound addition, Huh-7 cells containing the DENV2 replicon construct were harvested following standard cell culture procedures and were adjusted to a concentration of 1.25E5 cells/mL in cell culture media composed of cDMEM without genticin. 40 μL of the cell stock was then added to each well for a final cell density of 5,000 cells/well. Cell and compound mixtures were incubated at 37° C./5% CO2 for 48 hours. Prior to harvesting cells, EnduRen Live Cell Substrate (Promega, Cat #E6481) was prepared by suspending 3.4 mg into 100 uL of DMSO to generate a 60 mM stock solution. The stock solution was then diluted 1:200 in pre-warmed cDMEM and 10 uL of this diluted solution was added to each well of the 384 well plates. Plates were then centrifuged at 500 rpm briefly and were placed on a plate shaker for 2 min. Following mixing, plates were incubated at […] for 1.5 hours prior to measuring luminescence on an Envision luminometer.

[5] = Table 3; H1-HeLa cells, 96 h; read-out: HRV16 HeLa EC50
[6] = Table 3, Huh-7 DENV2 replicon cells, 48 hours
[7] = 96 h, Table 3; H1-HeLa cells, 96 h; read-out: HRV16 HeLa EC50
[8] = human respiratory syncytial virus, NHBE, 96 h
[9] = human respiratory syncytial virus, HEp-2, 96 h
[10] = Dengue virus, DENV2, Huh-7, 48 h

Structure (SMILES)	EC50 [1, 5] [nM]	EC50 [2] [nM]	EC50 [3] [nM]	EC50 [4, 6] [nM]	EC50 [1, 7] [nM]	EC50 [2, 8] [nM]	EC50 [3, 9] [nM]	EC50 [4, 10] [nM]
C/C(=N\c1ncnn2c([C@@H]3O[C@](C#N)(COP(=O)(N[C@@H](C)C(=O)OC4CCOCC4)Oc4ccccc4)[C@@H](OC(=O)C(C)C)[C@H]3OC(=O)C(C)C)ccc12)N(C)C (stereo partly drawn) [Example 219, (2R,3S,4S,5S)-2-cyano-5-(4-(((E)-1-(dimethylamino)ethylidene)amino)pyrrolo[2,1-f][1,2,4]triazin-7-yl)-2-((((((S)-1-oxo-1-((tetrahydro-2H-pyran-4-yl)oxy)propan-2-yl)amino)(phenoxy)phosphoryl)oxy)methyl) tetrahydrofuran-3,4-diyl bis(2-methylpropanoate)]	356	82	67	16400				
CC(C)C(=O)O[C@H]1[C@H](c2ccc3c(N)ncnn23)O[C@](C#N)(CO[P@@](=O)(N[C@@H](C)C(=O)O[C@H]2CC[C@H](C(C)(C)C)CC2)Oc2ccccc2)[C@H]1OC(=O)C(C)C [Example 80, (2R,3S,4S,5S)-5-(4-Aminopyrrolo[2,1-f][1,2,4]triazin-7-yl)-2-((((S)-(((S)-1-(((1r,4S)-4-(tert-butyl)cyclohexyl)oxy)-1-oxopropan-2-yl)amino)(phenoxy)phosphoryl)oxy)methyl)-2-cyanotetrahydrofuran-3,4-diyl bis(2-methylpropanoate)]					1570	158	1180	5300
C[C@H](NP(=O)(OC[C@@]1(C#N)O[C@@H](c2ccc3c(N)ncnn23)[C@H](OC(=O)C(C)(C)C)[C@@H]1OC(=O)C(C)(C)C)Oc1ccccc1)C(=O)OC1CCOCC1 (single isomer, unassigned) [Example 173]	519	75	256	16100				
COC(=O)[C@H](C)N[P@](=O)(OC[C@@]1(C#N)O[C@@H](c2ccc3c(N)ncnn23)[C@H](OC(C)=O)[C@@H]1OC(C)=O)Oc1ccccc1 (single isomer, unassigned) [Example 131]					782	47	103	19200
C[C@H](N[P@](=O)(OC[C@@]1(C#N)O[C@@H](c2ccc3c(N)ncnn23)C(OC(=O)c2ccccc2)[C@@H]1OC(=O)c1ccccc1)Oc1ccccc1)C(=O)OC1CCCCC1 (stereo in doubt) [Example 83, (2R,3S,4R,5S)-5-(4-aminopyrrolo[2,1-f][1,2,4]triazin-7-yl)-2-cyano-2-((((S)-(((S)-1-(cyclohexyloxy)-1-oxopropan-2-yl)amino)(phenoxy)phosphoryl)oxy)methyl) tetrahydrofuran-3,4-diyl dibenzoate]					17400	> 5000	> 100000	5160
CCCOC(=O)[C@H](C)NP(=O)(OC[C@@]1(C#N)O[C@@H](c2ccc3c(N)ncnn23)[C@H](OC(=O)CC)[C@@H]1OC(=O)CC)Oc1ccccc1 (single isomer, unassigned) [Example 188]	102	28	31	6920				
CCC(=O)O[C@H]1[C@H](c2ccc3c(N)ncnn23)O[C@](C#N)(COP(=O)(N[C@@H](C)C(=O)OC2CCC2)Oc2ccccc2)[C@H]1OC(=O)CC (stereo partly drawn) [Example 195, (2R,3S,4S,5S)-5-(4-aminopyrrolo[2,1-f][1,2,4]triazin-7-yl)-2-cyano-2-((((((S)-1-cyclobutoxy-1-oxopropan-2-yl)amino)(phenoxy)phosphoryl)oxy)methyl) tetrahydrofuran-3,4-diyl dipropionate]	126	59	23	6440				
CCC(=O)OC1C(c2ccc3c(N)ncnn23)OC(C#N)(COP(=O)(NC(C)C(=O)OCC2COC2)Oc2ccccc2)C1OC(=O)CC (single isomer, unassigned) [Example 205]	286	21	164	19000				
